How the values were obtained:
DENV helicase = DENV helicase (Dengue virus type 2, UniProt P29990); test: DENV helicase inhibition; format: biochemical
[1] = system: EcoRI-digested pT7-7 plasmid; test: Gel shift assay with plasmid; format: binding
JEV helicase = JEV helicase (Japanese encephalitis virus, UniProt P27395); test: JEV helicase inhibition; format: biochemical
HCV NS3 helicase (NS3h) [2] = molecular target: T1, HCV NS3 helicase (NS3h) (Hepacivirus hominis (Hepatitis C virus), UniProt P29846); test: HCV helicase unwinding assay, DNA substrate; format: biochemical
HCV NS3 helicase (NS3h) [3] = molecular target: T1, HCV NS3 helicase (NS3h); test: HCV helicase unwinding assay, RNA substrate; format: biochemical

T1 sequence (P29846 1192-1657): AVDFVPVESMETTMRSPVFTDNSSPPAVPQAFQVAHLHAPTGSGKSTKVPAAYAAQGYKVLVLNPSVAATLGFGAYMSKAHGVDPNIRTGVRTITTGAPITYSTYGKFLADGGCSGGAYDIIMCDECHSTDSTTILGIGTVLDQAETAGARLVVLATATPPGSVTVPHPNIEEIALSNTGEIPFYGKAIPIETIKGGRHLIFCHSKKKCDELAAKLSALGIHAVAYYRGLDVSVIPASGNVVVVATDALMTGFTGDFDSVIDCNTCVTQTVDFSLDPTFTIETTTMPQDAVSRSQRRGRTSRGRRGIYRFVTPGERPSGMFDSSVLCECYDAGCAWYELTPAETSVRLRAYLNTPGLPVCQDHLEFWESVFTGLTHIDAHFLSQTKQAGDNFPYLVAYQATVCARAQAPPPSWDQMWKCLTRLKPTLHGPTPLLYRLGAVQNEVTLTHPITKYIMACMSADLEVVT
Chain of JEV helicase (P27395 1505-2123): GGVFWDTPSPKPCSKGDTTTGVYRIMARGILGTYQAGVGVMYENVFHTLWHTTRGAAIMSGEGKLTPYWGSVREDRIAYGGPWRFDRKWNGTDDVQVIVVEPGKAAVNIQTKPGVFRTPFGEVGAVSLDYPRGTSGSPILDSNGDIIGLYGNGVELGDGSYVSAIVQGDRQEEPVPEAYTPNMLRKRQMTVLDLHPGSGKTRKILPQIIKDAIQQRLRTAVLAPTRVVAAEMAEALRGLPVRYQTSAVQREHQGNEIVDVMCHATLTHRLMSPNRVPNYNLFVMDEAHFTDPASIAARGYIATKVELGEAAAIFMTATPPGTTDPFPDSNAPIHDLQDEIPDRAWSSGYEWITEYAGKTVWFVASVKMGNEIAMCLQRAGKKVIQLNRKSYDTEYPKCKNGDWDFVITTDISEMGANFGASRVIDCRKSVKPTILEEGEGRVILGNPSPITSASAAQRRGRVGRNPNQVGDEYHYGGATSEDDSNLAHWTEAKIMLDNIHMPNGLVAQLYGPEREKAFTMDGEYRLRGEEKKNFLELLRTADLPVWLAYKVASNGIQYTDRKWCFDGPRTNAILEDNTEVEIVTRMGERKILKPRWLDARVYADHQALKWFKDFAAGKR
Chain of DENV helicase (P29990 1476-2093): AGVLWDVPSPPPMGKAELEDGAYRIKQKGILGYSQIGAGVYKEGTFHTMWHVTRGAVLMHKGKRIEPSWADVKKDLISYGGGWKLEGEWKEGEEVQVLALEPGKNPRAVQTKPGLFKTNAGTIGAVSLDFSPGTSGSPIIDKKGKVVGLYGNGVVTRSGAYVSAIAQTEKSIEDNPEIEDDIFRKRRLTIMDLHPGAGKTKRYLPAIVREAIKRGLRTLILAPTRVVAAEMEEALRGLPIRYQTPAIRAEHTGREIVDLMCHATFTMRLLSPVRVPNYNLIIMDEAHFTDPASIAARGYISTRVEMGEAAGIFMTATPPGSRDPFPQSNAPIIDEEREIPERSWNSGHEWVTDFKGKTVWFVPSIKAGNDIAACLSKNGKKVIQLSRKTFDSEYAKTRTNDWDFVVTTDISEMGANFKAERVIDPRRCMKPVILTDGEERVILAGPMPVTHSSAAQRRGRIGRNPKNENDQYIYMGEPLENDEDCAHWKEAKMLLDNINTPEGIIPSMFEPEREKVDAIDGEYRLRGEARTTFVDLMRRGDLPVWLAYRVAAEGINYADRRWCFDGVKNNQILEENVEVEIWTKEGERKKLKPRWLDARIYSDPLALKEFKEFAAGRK

Compound | DENV helicase inhibition, in words (DENV helicase) | Effect on gel mobility of plasmid [1] | JEV helicase inhibition, in words (JEV helicase) | IC50 (HCV NS3 helicase (NS3h) [2]) | IC50 (HCV NS3 helicase (NS3h) [3]) | HCV helicase inhibition, in words (HCV NS3 helicase (NS3h) [2]; DNA substrate) | HCV helicase inhibition, in words (HCV NS3 helicase (NS3h) [3]; RNA substrate)
COC(=O)c1cccc2oc(-c3ccc4c(OCc5ccccc5)cccc4c3O)nc12 [Compound 5] | no inhibition | do not affect | no inhibition | – | – | – | –
COC(=O)c1cccc2oc(-c3ccc4ccc(OCc5ccccc5)cc4c3O)nc12 [Compound 6] | no inhibition | do not affect | no inhibition | – | – | – | –
O=C(O)c1cccc2oc(-c3ccccc3O)nc12 [Compound 2] | – | – | – | > 1800 µM | > 1800 µM | – | –
CNC(=O)c1cccc2oc(-c3ccccc3O)nc12 [Compound 3] | – | – | – | > 1800 µM | > 1800 µM | – | –
COC(=O)c1cccc2oc(-c3ccccc3O)nc12 [Compound 1] | – | – | – | > 1800 µM | > 1800 µM | – | –
COC(=O)c1cccc2oc(-c3cccc4oc(-c5ccccc5O)nc34)nc12 [UK-1] | – | – | – | – | > 1200 µM | weak inhibition | no inhibition

From article PMC6136245 (Bioorganic & medicinal chemistry letters, 2013)
